Source: PMC6072251 (ACS Omega, 2018)
In brackets after ≈: the same amount, converted by molar mass. Read-outs that look alike come from different tables or passages of the source.

Legend:
S. mutans growth = S. mutans growth inhibition assay; type: cell-based, Streptococcus mutans UA159; settings: Streptococcus mutans, read-out: Growth MIC50
Gtfs = experiment: Zymogram assay of Gtf enzymatic activity; type: biochemical, S. mutans UA159; settings: compared to DMSO control
[1] = system: S. mutans UA159-induced dental caries; experiment: Rat model of dental caries; type: in vivo, Fischer 344 rats; settings: for bacterial colonization (cfu/mandible) / body weight over the course of the study: 100 μM twice daily for 4 weeks; for bacterial colonization (cfu/mandible): compared with control group treated with water; for body weight over the course of the study: in comparison with the control group; for oral tissue (mucosal and gingival tissues) at sacrifice: treated vs nontreated rats
S. gordonii = experiment: Growth of commensal S. gordonii; type: cell-based, Streptococcus gordonii DL1
S. mutans biofilm = S. mutans biofilm formation and inhibition assay; type: cell-based, Streptococcus mutans UA159; settings: for IC50: Streptococcus mutans
S. mutans colonization = experiment: Sucrose-dependent drosophila colonization model; type: in vivo; settings: 50 μM, feeding assay, after 7 days of infection
S. sanguinis = experiment: Growth of commensal S. sanguinis; type: cell-based, Streptococcus sanguinis SK36
S. mutans = experiment: Cell viability / growth of S. mutans; type: cell-based

Oc1ccc(/C=C/c2cc(O)cc(O)c2)cc1 [Compound 7, resveratrol]
MIC50 (S. mutans growth): 546 ± 15.9 µM (≈ 125 µg/mL)
glucan production / Gtf inhibition in zymogram assay (in words) (Gtfs): marginal inhibition
bacterial colonization (cfu/mandible) [1]: not statistically significant
body weight over the course of the study [1]: did not lose weight
oral tissue (mucosal and gingival tissues) at sacrifice [1]: no obvious differences

Oc1cc(O)cc(/C=C/c2ccc(O)c(O)c2)c1 [Compound 8, piceatannol]
MIC50 (S. mutans growth): 564 ± 37.8 µM (≈ 138 µg/mL)
decrease of cell density (S. gordonii; S. gordonii, at 400 μM): 15–18%
inhibition at 52 µM (S. gordonii; Streptococcus gordonii, read-out: growth inhibited): < 10%
IC50 (S. mutans biofilm; read-out: Biofilm IC50, S. mutans biofilm, NI: no inhibition): 52 ± 6 µM
fluorescence in the guts of flies fed Gfp-tagged S. mutans (S. mutans colonization): significant decrease in fluorescence
decrease of cell density (S. sanguinis; S. sanguinis, at 400 μM): 15–18%
inhibition at 52 µM (S. sanguinis; Streptococcus sanguinis, read-out: growth inhibited): < 10%
glucan production / Gtf inhibition in zymogram assay (in words) (Gtfs): greatly reduced glucan production
bacterial colonization (cfu/mandible) [1]: not statistically significant
body weight over the course of the study [1]: did not lose weight
oral tissue (mucosal and gingival tissues) at sacrifice [1]: no obvious differences
viability of the biofilms and the planktonic cells (S. mutans; S. mutans): not significantly impacted
inhibition of cell viability (S. mutans; S. mutans, at 400 μM): 37%
inhibition at 52 µM (S. mutans; Streptococcus mutans, read-out: growth inhibited): < 10%

O=C(/C=C/c1ccc(O)c(O)c1)O[C@@H]1C[C@](O)(C(=O)O)C[C@@H](O)[C@H]1O [Compound 10]
MIC50 (S. mutans growth): 1720 ± 53 µM (≈ 611 µg/mL)
IC50 (S. mutans biofilm; read-out: Biofilm IC50): 518 ± 85 µM
Selectivity (S. mutans biofilm; biofilm inhibition over growth inhibition of S. mutans): 3.3
